Laboratory results: the NIST ThermoML archive (doi:10.1021/je800110r)

Conditions: 313.14 K, Liquid, Vibrating tube method

CCCCCCCCCC [decane]
Conditions | mass density [kg/m3]
15552 kPa | 727.4
15582 kPa | 727.2
15613 kPa | 727.3
15637 kPa | 727.3
15663 kPa | 727.3
15908 kPa | 727.6
15941 kPa | 727.5
15972 kPa | 727.6
16007 kPa | 727.6
16031 kPa | 727.6
16067 kPa | 727.7
16091 kPa | 727.6
16114 kPa | 727.7
16151 kPa | 727.8
16180 kPa | 727.7
16204 kPa | 727.8
16241 kPa | 727.8
16273 kPa | 727.8
16306 kPa | 727.9
16338 kPa | 727.9
16359 kPa | 727.8
16381 kPa | 727.9
16402 kPa | 728
16427 kPa | 727.9
16452 kPa | 727.9
16478 kPa | 728
16507 kPa | 728
16537 kPa | 728
16566 kPa | 728
16587 kPa | 728
16618 kPa | 728.1
16648 kPa | 728.1
16683 kPa | 728.1
16721 kPa | 728.2
16748 kPa | 728.1
16784 kPa | 728.2
16824 kPa | 728.1
16860 kPa | 728.2
16883 kPa | 728.2
16907 kPa | 728.3
16935 kPa | 728.3
16975 kPa | 728.4
16996 kPa | 728.4
17023 kPa | 728.3
17046 kPa | 728.4
17070 kPa | 728.3
17101 kPa | 728.4
17124 kPa | 728.5
17149 kPa | 728.5
17170 kPa | 728.4
17191 kPa | 728.4
17222 kPa | 728.6
17243 kPa | 728.6
17264 kPa | 728.5
17296 kPa | 728.6
17320 kPa | 728.5
17348 kPa | 728.5
17377 kPa | 728.5
17408 kPa | 728.6
17430 kPa | 728.7
17455 kPa | 728.7
17481 kPa | 728.6
17502 kPa | 728.8
17528 kPa | 728.7
17557 kPa | 728.8
17609 kPa | 728.8
17763 kPa | 728.9
17790 kPa | 728.9
17820 kPa | 729
17842 kPa | 729
17877 kPa | 729.1
17905 kPa | 729
17931 kPa | 729.1
17958 kPa | 729
17988 kPa | 729.1
18011 kPa | 729.1
18042 kPa | 729.1
18062 kPa | 729.2
18096 kPa | 729.1
18131 kPa | 729.2
18170 kPa | 729.2
18202 kPa | 729.2
18226 kPa | 729.2
18249 kPa | 729.2
18273 kPa | 729.3
18301 kPa | 729.3
18325 kPa | 729.4
18346 kPa | 729.4
18374 kPa | 729.4
18403 kPa | 729.5
18439 kPa | 729.3
18460 kPa | 729.4
18494 kPa | 729.4
18522 kPa | 729.5
18544 kPa | 729.6
18569 kPa | 729.5
18600 kPa | 729.6
18628 kPa | 729.5
18646 kPa | 729.5
18671 kPa | 729.5
18697 kPa | 729.6
18722 kPa | 729.5
18748 kPa | 729.6
18781 kPa | 729.6
18812 kPa | 729.7
18842 kPa | 729.7
18869 kPa | 729.7
18894 kPa | 729.8
18927 kPa | 729.8
18953 kPa | 729.7
18979 kPa | 729.8
19001 kPa | 729.8
19027 kPa | 729.8
19054 kPa | 729.8
19076 kPa | 729.8
19102 kPa | 729.9
19133 kPa | 729.9
19152 kPa | 730
19187 kPa | 730
19210 kPa | 729.9
19237 kPa | 729.9
19256 kPa | 730
19287 kPa | 730.1
19326 kPa | 730
19353 kPa | 730
19380 kPa | 730.1
19412 kPa | 730.1
19441 kPa | 730.2
19466 kPa | 730.2
19487 kPa | 730.2
19512 kPa | 730.2
19546 kPa | 730.2
19564 kPa | 730.2
19582 kPa | 730.2
19606 kPa | 730.3
19634 kPa | 730.2
19655 kPa | 730.3
19686 kPa | 730.3
19711 kPa | 730.4
19727 kPa | 730.4
19745 kPa | 730.4
19773 kPa | 730.4
19804 kPa | 730.3
19823 kPa | 730.5
19848 kPa | 730.4
19867 kPa | 730.5
19889 kPa | 730.5
19908 kPa | 730.5
19940 kPa | 730.5
19959 kPa | 730.6
19985 kPa | 730.5
20008 kPa | 730.6
20028 kPa | 730.6
20055 kPa | 730.6
20074 kPa | 730.5
20097 kPa | 730.6
20126 kPa | 730.4
20150 kPa | 730.6
20172 kPa | 730.7
20205 kPa | 730.7
20221 kPa | 730.7
20238 kPa | 730.8
20257 kPa | 730.7
20287 kPa | 730.8
20308 kPa | 730.7
20329 kPa | 730.8
20385 kPa | 730.8
20430 kPa | 730.9
20460 kPa | 730.9
20488 kPa | 730.9
20511 kPa | 731
20535 kPa | 730.9
20586 kPa | 731
20611 kPa | 731
20632 kPa | 730.9
20663 kPa | 731.1
20687 kPa | 731.1
20708 kPa | 731
20732 kPa | 731.2
20767 kPa | 731.1
20791 kPa | 731.2
20819 kPa | 731.1
20850 kPa | 731.2
20872 kPa | 731.1
20900 kPa | 731.1
20932 kPa | 731.4
21014 kPa | 731.3
21046 kPa | 731.3
21075 kPa | 731.3
21144 kPa | 731.3
21163 kPa | 731.4
21200 kPa | 731.3
21226 kPa | 731.6
21308 kPa | 731.5
21387 kPa | 731.5
21414 kPa | 731.7
21440 kPa | 731.6
21471 kPa | 731.6
21495 kPa | 731.7
21516 kPa | 731.6
21536 kPa | 731.6
21563 kPa | 731.7
21597 kPa | 731.7
21621 kPa | 731.6
21642 kPa | 731.8
21663 kPa | 731.8
21686 kPa | 731.8
21728 kPa | 731.9
21752 kPa | 731.8
21771 kPa | 731.8
21827 kPa | 731.8
21852 kPa | 731.9
21883 kPa | 731.9
21911 kPa | 731.9
21932 kPa | 731.9
21953 kPa | 731.9
21985 kPa | 731.9
22006 kPa | 731.9
22034 kPa | 732
22060 kPa | 732.1
22083 kPa | 732.1
22115 kPa | 732
22140 kPa | 732.1
22165 kPa | 732
22198 kPa | 732.2
22216 kPa | 732
22245 kPa | 732.2
22263 kPa | 732.1
22292 kPa | 732.2
22321 kPa | 732.2
22348 kPa | 732.2
22374 kPa | 732.2
22400 kPa | 732.2
22426 kPa | 732.3
22522 kPa | 732.3
22577 kPa | 732.3
22645 kPa | 732.5
22672 kPa | 732.5
22699 kPa | 732.4
22729 kPa | 732.6
22756 kPa | 732.5
22794 kPa | 732.6
22828 kPa | 732.6
22855 kPa | 732.6
22882 kPa | 732.5
22904 kPa | 732.6
22939 kPa | 732.7
23398 kPa | 733
23435 kPa | 732.9
23468 kPa | 732.9
23492 kPa | 733
23529 kPa | 733
23554 kPa | 733
23579 kPa | 733.1
23611 kPa | 733.2
23636 kPa | 733
23669 kPa | 733.1
23699 kPa | 733.2
23732 kPa | 733.2
23758 kPa | 733.2
23792 kPa | 733.3
23821 kPa | 733.4
23851 kPa | 733.2
23873 kPa | 733.2
23894 kPa | 733.3
23923 kPa | 733.4
23954 kPa | 733.4
23992 kPa | 733.4
24027 kPa | 733.4
24054 kPa | 733.4
24081 kPa | 733.5
24116 kPa | 733.5
24142 kPa | 733.4
